Active and inactive are the calls of the source. The calls are words filed in the database; no cut-off is given here.
What was measured:
[1] = Toxicity in immunocompetent C57BL/6J mouse allografted with B16-F10 cells assessed as tissue damage in kidney administered at 30 mg/kg, ip daily for 14 days by hematoxylin and eosin staining analysis; format: organism-based; details: in vivo, 336 h, time 14 day
HeLa [2] = test: Induction of apoptosis in human HeLa cells assessed as viable cells preincubated with PFTalpha followed by compound addition at 10 uM for 24 hrs measured by annexin V-PI staining based FITC analysis (reference value: 94.2%); format: functional; details: read-out: Activity
HeLa [3] = test: Induction of ferroptosis in human HeLa cells assessed as reduction of mitochondrion volume measured at 6 uM for 24 hrs by transmission electron microscopic analysis; format: functional, cell-based
HeLa [4] = test: Induction of apoptosis in human HeLa cells assessed as early apoptotic cells incubated at 8 uM for 24 hrs measured by annexin V-PI staining based FITC analysis (reference value: 3.59%); format: functional
[5] = Toxicity in immunocompetent C57BL/6J mouse allografted with B16-F10 cells assessed as change of organ index in lungs administered at 30 mg/kg, ip daily for 14 days by hematoxylin and eosin staining analysis; format: organism-based; details: in vivo, 336 h, time 14 day
B16-F10 [6] = test: Induction of ferroptosis in mouse B16-F10 cells assessed as downregulation of SLC7A11 level measured at 4 to 10 uM by Western blotting analysis; format: functional, cell-based; details: dose 4-10 µM
HeLa [7] = test: Induction of ferroptosis in human HeLa cells assessed as downregulation of GPX4 level measured at 4 to 10 uM for 24 hrs by Western blotting analysis; format: functional, cell-based; details: dose 4-10 µM
HeLa [8] = test: Induction of ROS generation in human HeLa cells assessed as increase in ROS level at 20 uM incubated for 1 hrs (reference value: 39.6%); format: functional
HeLa [9] = test: Induction of apoptosis in human HeLa cells assessed as late apoptotic cells incubated at 4 uM for 24 hrs measured by annexin V-PI staining based FITC analysis (reference value: 1.81%); format: functional
HeLa [10] = test: Induction of apoptosis in human HeLa cells assessed as late apoptotic cells incubated at 10 uM for 24 hrs measured by annexin V-PI staining based FITC analysis (reference value: 1.81%); format: functional
[11] = Toxicity in immunocompetent C57BL/6J mouse allografted with B16-F10 cells assessed as change of organ index in kidney administered at 30 mg/kg, ip daily for 14 days by hematoxylin and eosin staining analysis; format: organism-based; details: in vivo, 336 h, time 14 day
HeLa [12] = test: Induction of apoptosis in human HeLa cells assessed as early apoptotic cells incubated at 10 uM for 24 hrs measured by annexin V-PI staining based FITC analysis (reference value: 2.72%); format: functional
HeLa [13] = test: Induction of ferroptosis in human HeLa cells assessed as increase of ACSL4 level measured at 4 to 10 uM for 24 hrs by Western blotting analysis; format: functional, cell-based; details: dose 4-10 µM
[14] = Toxicity in immunocompetent C57BL/6J mouse allografted with B16-F10 cells assessed as tissue damage in liver administered at 30 mg/kg, ip daily for 14 days by hematoxylin and eosin staining analysis; format: organism-based; details: in vivo, 336 h, time 14 day
[15] = Toxicity in immunocompetent C57BL/6J mouse allografted with B16-F10 cells assessed as change in body weight administered at 30 mg/kg, ip daily for 14 days measured every 3 days; format: organism-based; details: in vivo, 336 h, time 14 day
B16-F10 [16] = test: Induction of ferroptosis in mouse B16-F10 cells assessed as downregulation of GPX4 level measured at 4 to 10 uM by Western blotting analysis; format: functional, cell-based; details: dose 4-10 µM
[17] = Toxicity in immunocompetent C57BL/6J mouse allografted with B16-F10 cells assessed as tissue damage in thymus administered at 30 mg/kg, ip daily for 14 days by hematoxylin and eosin staining analysis; format: organism-based; details: in vivo, 336 h, time 14 day
HeLa [18] = test: Induction of apoptosis in human HeLa cells assessed as late apoptotic cells incubated at 8 uM for 24 hrs measured by annexin V-PI staining based FITC analysis (reference value: 1.81%); format: functional
HeLa [19] = test: Induction of apoptosis in human HeLa cells assessed as viable cells incubated at 10 uM for 24 hrs measured by annexin V-PI staining based FITC analysis (reference value: 91.6%); format: functional; details: read-out: Activity
HeLa [20] = test: Induction of apoptosis in human HeLa cells assessed as necrotic cells incubated at 4 uM for 24 hrs measured by annexin V-PI staining based FITC analysis (reference value: 0.58%); format: functional
HeLa [21] = test: Induction of apoptosis in human HeLa cells assessed as necrotic cells incubated at 6 uM for 24 hrs measured by annexin V-PI staining based FITC analysis (reference value: 0.58%); format: functional
HeLa [22] = test: Induction of apoptosis in human HeLa cells assessed as late apoptotic cells preincubated with PFTalpha followed by compound addition at 10 uM for 24 hrs measured by annexin V-PI staining based FITC analysis (reference value: 3.45%); format: functional
HeLa [23] = test: Induction of apoptosis in human HeLa cells assessed as early apoptotic cells preincubated with PFTalpha followed by compound addition at 10 uM for 24 hrs measured by annexin V-PI staining based FITC analysis (reference value: 3.28%); format: functional
HeLa [24] = test: Induction of apoptosis in human HeLa cells assessed as late apoptotic cells incubated at 10 uM for 24 hrs measured by annexin V-PI staining based FITC analysis (reference value: 1.54%); format: functional
HeLa [25] = test: Induction of apoptosis in human HeLa cells assessed as necrotic cells incubated at 8 uM for 24 hrs measured by annexin V-PI staining based FITC analysis (reference value: 0.58%); format: functional
HeLa [26] = test: Induction of apoptosis in human HeLa cells assessed as early apoptotic cells incubated at 4 uM for 24 hrs measured by annexin V-PI staining based FITC analysis (reference value: 3.94%); format: functional
HeLa [27] = test: Induction of apoptosis in human HeLa cells assessed as necrotic cells preincubated with PFTalpha followed by compound addition at 10 uM for 24 hrs measured by annexin V-PI staining based FITC analysis (reference value: 1.6%); format: functional
HeLa [28] = test: Induction of ROS generation in human HeLa cells assessed as increase in ROS level at 10 uM incubated for 1 hrs (reference value: 37.8%); format: functional
HeLa [29] = test: Induction of apoptosis in human HeLa cells assessed as early apoptotic cells incubated at 10 uM for 24 hrs measured by annexin V-PI staining based FITC analysis (reference value: 3.28%); format: functional
HeLa [30] = test: Induction of apoptosis in human HeLa cells assessed as late apoptotic cells incubated at 6 uM for 24 hrs measured by annexin V-PI staining based FITC analysis (reference value: 1.54%); format: functional

CCC/C=C/C=C/C(=O)O[C@@H]1C[C@H]2[C@@H](CCCC[C@H](O)CCC)CCC[C@H]2N[C@H]1C
Activity [1]: Non-Toxic
viability at 10 µM (HeLa [2]): 46%
Activity (HeLa [3]): Active
Activity (HeLa [4]): 21.1%
Activity [5]: Non-Toxic
Activity (B16-F10 [6]): Active
Activity (HeLa [7]): Active
Activity (HeLa [8]): 90.1%
Activity (HeLa [9]): 2.52%
Activity (HeLa [10]): 5.53%
Activity [11]: Non-Toxic
Activity (HeLa [12]): 31.8%
Activity (HeLa [13]): Active
Activity [14]: Non-Toxic
Activity [15]: Non-Toxic
Activity (B16-F10 [16]): Active
Activity [17]: Non-Toxic
Activity (HeLa [18]): 2.28%

CCCCC/C=C/C(=O)O[C@@H]1C[C@H]2[C@@H](CCCC[C@H](O)CCC)CCC[C@H]2N[C@H]1C
viability at 10 µM (HeLa [19]): 28%
Activity (HeLa [20]): 0.53%
Activity (HeLa [21]): 0.85%
Activity (HeLa [22]): 26.9%
Activity (HeLa [23]): 31.9%
Activity (HeLa [24]): 27.3%
Activity (HeLa [25]): 3.09%
Activity (HeLa [26]): 5.32%
Activity (HeLa [27]): 4.34%
Activity (HeLa [28]): 62.3%
Activity (HeLa [29]): 35.6%
Activity (HeLa [30]): 3.62%
